Results: patent EP4603105A1, “PHARMACEUTICAL COMPOSITION CONTAINING CYCLIC COMPOUND HAVING SELECTIVE KRAS INHIBITORY EFFECT AGAINST HRAS AND NRAS” (CHUGAI SEIYAKU KABUSHIKI KAISHA, priority 2022, dated 2024)
Where a SMILES comes first, the peptide text is derived from it. Bridges are numbered along the chain shown (N, C = ends). [ ]: non-standard residue; d: D form. The star is where a group is joined. hPhe(3-Cl-4-CF3) = N[C@@H](CCc1ccc(C(F)(F)F)c(Cl)c1)C(=O)O; NPrPhe(4-CF3) = CCCN[C@@H](Cc1ccc(C(F)(F)F)cc1)C(=O)O; NMeGly(cPent) = CN[C@H](C(=O)O)C1CCCC1; Pro(4,4-F2) = O=C(O)[C@@H]1CC(F)(F)CN1; Hyp = O=C(O)[C@@H]1C[C@@H](O)CN1; NMeL = CN[C@@H](CC(C)C)C(=O)O; Morpholide = C1CN(*)CCO1; NMeA = CN[C@@H](C)C(=O)O; Ac5c = NC1(C(=O)O)CCCC1; Aze = O=C(O)[C@@H]1CCN1; Ac4c = NC1(C(=O)O)CCC1; Sar = CNCC(=O)O

What was measured:
[1] = target: GDP-bound NRAS wild-type protein (Homo sapiens, UniProt P01111); assay: Binding to NRAS by surface plasmon resonance (SPR), KD and KD ratio to KRAS; details: ratio of KD for GDP-bound NRAS wild-type protein to KD for KRAS
In short: (§1)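 Single-cycle kinetics on GDP-loaded biotin-Avi RAS captured to ~100–300 RU; 75 s ascending injections, 100 µL/min, 30°C. HBS pH 7.4 + 10 mM MgCl2/10 µM GDP/4% DMSO. 1:1 fit, KD.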

HRAS wild-type protein = HRAS wild-type protein (Homo sapiens, UniProt P01112); assay: Binding to HRAS by surface plasmon resonance (SPR), KD and KD ratio to KRAS; details: ratio of KD for HRAS wild-type protein to KD for KRAS
In short: as §1

[2] = tested on: human lung cancer strain NCI-H441; assay type: cell-based
In short: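 Proliferation was scored by […] measured after the reagent was added to cultures kept at 37°C in 5% carbon dioxide.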

Chain of HRAS wild-type protein (P01112 whole entry): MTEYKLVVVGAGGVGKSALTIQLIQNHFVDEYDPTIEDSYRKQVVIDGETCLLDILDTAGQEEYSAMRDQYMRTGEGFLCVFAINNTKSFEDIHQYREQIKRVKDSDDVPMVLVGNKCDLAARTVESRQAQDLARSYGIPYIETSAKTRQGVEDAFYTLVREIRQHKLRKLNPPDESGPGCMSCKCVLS
Chain of GDP-bound NRAS wild-type protein (P01111 whole entry): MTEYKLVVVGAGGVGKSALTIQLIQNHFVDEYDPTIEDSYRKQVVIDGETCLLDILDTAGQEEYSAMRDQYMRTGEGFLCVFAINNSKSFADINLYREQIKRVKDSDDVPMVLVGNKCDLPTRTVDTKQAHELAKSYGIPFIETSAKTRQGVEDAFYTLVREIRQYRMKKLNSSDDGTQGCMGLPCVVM

Row | Compound | IC50 [2] [µM] | NRAS /KRAS [1] | HRAS /KRAS (HRAS wild-type protein)
1 | CCCN1C(=O)CN(C)C(=O)[C@@H]2CCN2C(=O)[C@H]([C@@H](C)CC)NC(=O)[C@H](CC(C)C)N(C)C(=O)C[C@@H](C(=O)N2CCOCC2)NC(=O)[C@H](C2CCCC2)N(C)C(=O)C2(CCCC2)NC(=O)[C@@H]2CCCN2C(=O)[C@H](CCc2ccc(C(F)(F)F)c(Cl)c2)NC(=O)CN(C)C(=O)[C@@H]1Cc1ccc(C(F)(F)F)cc1 [PP0337] ([NMeL]I[Aze][Sar][NPrPhe(4-CF3)][Sar][hPhe(3-Cl-4-CF3)]P[Ac5c][NMeGly(cPent)]D-Morpholide; lactam N-11) | 0.333 | B (a compound having 3 or more and less than 10 is denoted as B) | B (a compound having 3 or more and less than 10 is denoted as B)
2 | CCCN1C(=O)CN(C)C(=O)[C@@H]2CCN2C(=O)[C@H]([C@@H](C)CC)NC(=O)[C@H](CC(C)C)N(C)C(=O)C[C@@H](C(=O)N2CCOCC2)NC(=O)[C@H](C2CCCC2)N(C)C(=O)C2(CCCC2)NC(=O)[C@@H]2CC(F)(F)CN2C(=O)[C@H](CCc2ccc(C(F)(F)F)c(Cl)c2)NC(=O)CN(C)C(=O)[C@@H]1Cc1ccc(C(F)(F)F)cc1 [PP0339] ([NMeL]I[Aze][Sar][NPrPhe(4-CF3)][Sar][hPhe(3-Cl-4-CF3)][Pro(4,4-F2)][Ac5c][NMeGly(cPent)]D-Morpholide; lactam N-11) | 0.158 | B (a compound having 3 or more and less than 10 is denoted as B) | B (a compound having 3 or more and less than 10 is denoted as B)
3 | CCCN1C(=O)CN(C)C(=O)[C@@H]2CCN2C(=O)[C@H]([C@@H](C)CC)NC(=O)[C@H](CC(C)C)N(C)C(=O)C[C@@H](C(=O)N2CCOCC2)NC(=O)[C@H](C2CCCC2)N(C)C(=O)C2(CCC2)NC(=O)[C@@H]2C[C@@H](OCC)CN2C(=O)[C@H](CCc2ccc(C(F)(F)F)c(Cl)c2)NC(=O)CN(C)C(=O)[C@@H]1Cc1ccc(C(F)(F)F)cc1 [PP0342] ([NMeL]I[Aze][Sar][NPrPhe(4-CF3)][Sar][hPhe(3-Cl-4-CF3)][Hyp](Et)[Ac4c][NMeGly(cPent)]D-Morpholide; lactam N-11) | 0.141 | B (a compound having 3 or more and less than 10 is denoted as B) | B (a compound having 3 or more and less than 10 is denoted as B)
4 | CCCN1C(=O)[C@@H]2CCN2C(=O)[C@H](C)N(C)C(=O)[C@H]([C@@H](C)CC)NC(=O)[C@H](CC(C)C)N(C)C(=O)C[C@@H](C(=O)N2CCOCC2)NC(=O)[C@H](C2CCCC2)N(C)C(=O)C2(CCC2)NC(=O)[C@@H]2CCCN2C(=O)[C@H](CCc2ccc(C(F)(F)F)c(Cl)c2)NC(=O)CN(C)C(=O)[C@@H]1Cc1ccc(C(F)(F)F)cc1 [PP0344] ([NMeL]I[NMeA][Aze][NPrPhe(4-CF3)][Sar][hPhe(3-Cl-4-CF3)]P[Ac4c][NMeGly(cPent)]D-Morpholide; lactam N-11) | 0.0829 | C (A compound having a KD ratio of 0.1 or more and less than 3 is denoted as C) | B (a compound having 3 or more and less than 10 is denoted as B)
5 | CCCN1C(=O)[C@@H]2CCN2C(=O)[C@H](C)N(C)C(=O)[C@H]([C@@H](C)CC)NC(=O)[C@H](CC(C)C)N(C)C(=O)C[C@@H](C(=O)N2CCOCC2)NC(=O)[C@H](C2CCCC2)N(C)C(=O)C2(CCC2)NC(=O)[C@@H]2CC(F)(F)CN2C(=O)[C@H](CCc2ccc(C(F)(F)F)c(Cl)c2)NC(=O)CN(C)C(=O)[C@@H]1Cc1ccc(C(F)(F)F)cc1 [PP0346] ([NMeL]I[NMeA][Aze][NPrPhe(4-CF3)][Sar][hPhe(3-Cl-4-CF3)][Pro(4,4-F2)][Ac4c][NMeGly(cPent)]D-Morpholide; lactam N-11) | 0.0695 | C (A compound having a KD ratio of 0.1 or more and less than 3 is denoted as C) | B (a compound having 3 or more and less than 10 is denoted as B)
6 | CCCN1C(=O)[C@@H]2CCN2C(=O)CN(C)C(=O)[C@H]([C@@H](C)CC)NC(=O)[C@H](CC(C)C)N(C)C(=O)C[C@@H](C(=O)N2CCOCC2)NC(=O)[C@H](C2CCCC2)N(C)C(=O)C2(CCCC2)NC(=O)[C@@H]2CCCN2C(=O)[C@H](CCc2ccc(C(F)(F)F)c(Cl)c2)NC(=O)CN(C)C(=O)[C@@H]1Cc1ccc(C(F)(F)F)cc1 [PP0349] ([NMeL]I[Sar][Aze][NPrPhe(4-CF3)][Sar][hPhe(3-Cl-4-CF3)]P[Ac5c][NMeGly(cPent)]D-Morpholide; lactam N-11) | 0.0759 | C (A compound having a KD ratio of 0.1 or more and less than 3 is denoted as C) | B (a compound having 3 or more and less than 10 is denoted as B)
7 | CCCN1C(=O)[C@@H]2CCN2C(=O)CN(C)C(=O)[C@H]([C@@H](C)CC)NC(=O)[C@H](CC(C)C)N(C)C(=O)C[C@@H](C(=O)N2CCOCC2)NC(=O)[C@H](C2CCCC2)N(C)C(=O)C2(CCC2)NC(=O)[C@@H]2CCCN2C(=O)[C@H](CCc2ccc(C(F)(F)F)c(Cl)c2)NC(=O)CN(C)C(=O)[C@@H]1Cc1ccc(C(F)(F)F)cc1 [PP0350] ([NMeL]I[Sar][Aze][NPrPhe(4-CF3)][Sar][hPhe(3-Cl-4-CF3)]P[Ac4c][NMeGly(cPent)]D-Morpholide; lactam N-11) | 0.0698 | C (A compound having a KD ratio of 0.1 or more and less than 3 is denoted as C) | B (a compound having 3 or more and less than 10 is denoted as B)

These reach a lower IC50 [2]. Values come first.

Row | IC50 [2] [µM] | Compound | NRAS /KRAS [1] | HRAS /KRAS (HRAS wild-type protein)
8 | 0.0549 | CCCN1C(=O)[C@@H]2CCN2C(=O)[C@H](C)N(C)C(=O)[C@H]([C@@H](C)CC)NC(=O)[C@H](CC(C)C)N(C)C(=O)C[C@@H](C(=O)N2CCOCC2)NC(=O)[C@H](C2CCCC2)N(C)C(=O)C2(CCCC2)NC(=O)[C@@H]2CC(F)(F)CN2C(=O)[C@H](CCc2ccc(C(F)(F)F)c(Cl)c2)NC(=O)CN(C)C(=O)[C@@H]1Cc1ccc(C(F)(F)F)cc1 [PP0345] ([NMeL]I[NMeA][Aze][NPrPhe(4-CF3)][Sar][hPhe(3-Cl-4-CF3)][Pro(4,4-F2)][Ac5c][NMeGly(cPent)]D-Morpholide; lactam N-11) | C (A compound having a KD ratio of 0.1 or more and less than 3 is denoted as C) | B (a compound having 3 or more and less than 10 is denoted as B)
9 | 0.0476 | CCCN1C(=O)[C@@H]2CCN2C(=O)[C@H](C)N(C)C(=O)[C@H]([C@@H](C)CC)NC(=O)[C@H](CC(C)C)N(C)C(=O)C[C@@H](C(=O)N2CCOCC2)NC(=O)[C@H](C2CCCC2)N(C)C(=O)C2(CCCC2)NC(=O)[C@@H]2CCCN2C(=O)[C@H](CCc2ccc(C(F)(F)F)c(Cl)c2)NC(=O)CN(C)C(=O)[C@@H]1Cc1ccc(C(F)(F)F)cc1 [PP0343] ([NMeL]I[NMeA][Aze][NPrPhe(4-CF3)][Sar][hPhe(3-Cl-4-CF3)]P[Ac5c][NMeGly(cPent)]D-Morpholide; lactam N-11) | C (A compound having a KD ratio of 0.1 or more and less than 3 is denoted as C) | B (a compound having 3 or more and less than 10 is denoted as B)
10 | 0.039 | CCCN1C(=O)[C@@H]2CCN2C(=O)CN(C)C(=O)[C@H]([C@@H](C)CC)NC(=O)[C@H](CC(C)C)N(C)C(=O)C[C@@H](C(=O)N2CCOCC2)NC(=O)[C@H](C2CCCC2)N(C)C(=O)C2(CCCC2)NC(=O)[C@@H]2CC(F)(F)CN2C(=O)[C@H](CCc2ccc(C(F)(F)F)c(Cl)c2)NC(=O)CN(C)C(=O)[C@@H]1Cc1ccc(C(F)(F)F)cc1 [PP0351] ([NMeL]I[Sar][Aze][NPrPhe(4-CF3)][Sar][hPhe(3-Cl-4-CF3)][Pro(4,4-F2)][Ac5c][NMeGly(cPent)]D-Morpholide; lactam N-11) | C (A compound having a KD ratio of 0.1 or more and less than 3 is denoted as C) | B (a compound having 3 or more and less than 10 is denoted as B)
11 | 0.0151 | CCCN1C(=O)[C@@H]2CCN2C(=O)[C@H](C)N(C)C(=O)[C@H]([C@@H](C)CC)NC(=O)[C@H](CC(C)C)N(C)C(=O)C[C@@H](C(=O)N2CCOCC2)NC(=O)[C@H](C2CCCC2)N(C)C(=O)C2(CCC2)NC(=O)[C@@H]2C[C@@H](OCC)CN2C(=O)[C@H](CCc2ccc(C(F)(F)F)c(Cl)c2)NC(=O)CN(C)C(=O)[C@@H]1Cc1ccc(C(F)(F)F)cc1 [PP0348] ([NMeL]I[NMeA][Aze][NPrPhe(4-CF3)][Sar][hPhe(3-Cl-4-CF3)][Hyp](Et)[Ac4c][NMeGly(cPent)]D-Morpholide; lactam N-11) | C (A compound having a KD ratio of 0.1 or more and less than 3 is denoted as C) | B (a compound having 3 or more and less than 10 is denoted as B)
12 | 0.0109 | CCCN1C(=O)[C@@H]2CCN2C(=O)[C@H](C)N(C)C(=O)[C@H]([C@@H](C)CC)NC(=O)[C@H](CC(C)C)N(C)C(=O)C[C@@H](C(=O)N2CCOCC2)NC(=O)[C@H](C2CCCC2)N(C)C(=O)C2(CCCC2)NC(=O)[C@@H]2C[C@@H](OCC)CN2C(=O)[C@H](CCc2ccc(C(F)(F)F)c(Cl)c2)NC(=O)CN(C)C(=O)[C@@H]1Cc1ccc(C(F)(F)F)cc1 [PP0347] ([NMeL]I[NMeA][Aze][NPrPhe(4-CF3)][Sar][hPhe(3-Cl-4-CF3)][Hyp](Et)[Ac5c][NMeGly(cPent)]D-Morpholide; lactam N-11) | C (A compound having a KD ratio of 0.1 or more and less than 3 is denoted as C) | B (a compound having 3 or more and less than 10 is denoted as B)
